Measurements: patent US20070269529A1, “Method For Treating Plants And Plant Parts” (priority 2003, published 2007)

Columns and labels:
Type in all cases: cell-based, Raphanus sativus L. cv. Cherry-Belle
radish cotyledons [1] = test: Radish cotyledon expansion bioassay (fresh weight, chlorophyll); details: compounds 20 mg/L, 72 h, 25° C.; for Change in fresh weight: continuous illumination
Procedure: (§1) Seeds of Raphanus sativus L. cv. Cherry-Belle were germinated in darkness at 24° C. for 40 h in Petri dishes containing filter paper wetted with distilled water. The smaller of the two cotyledons was excised, the fresh weight determined, and 10 cotyledons placed adaxial side down on filter paper in Petri dishes containing 7.5 mL of phosphate buffered saline (PBS, 2 mM, pH 6.0) and the compounds to be tested at 20 mg/L. Cotyledons were then incubated under continuous illumination up to 72 h at 24° C. or 25° C. and the increase in fresh weight determined. Chlorophyll content was determined after extraction of tissue into 80% EtOH (containing butylated hydroxytoluene 10 mg/L) and quantified using the equations Chl a=(13.95A663)-(6.88A647) and Chl b=(24.96A652)-(7.32A663) as described by Lichtenthaler, H K (Methods in Enzymology 148:350-382, 1987). IAA oxidase, PAL, PPO and POD activity were determined as described by Kato, M et al. (Plant and Cell Physiology 41:440-447, 2000) and Li, X et al. (Plant Science 164:549-556, 2003).
In order to remove variability from the bioassay—due presumably to temporal changes in the concentration of root-derived cytokinins in cotyledons—the bioassay procedure was modified to routinely include 0.2 mg/L (approximately 1 μM) kinetin in the background.
Cotyledon expansion growth: The effect of soy EML in the presence of kinetin on expansion growth was investigated and the results are shown in Table 1.

radish cotyledons [2] = test: Protein content of radish cotyledons; details: 20 mg/L, FIG. 1
Procedure: as §1
(§2) PAL (EC 4.3.1.5) activity: Ethylene is produced by plants in response to a variety of stresses, including wounding (Kato, M et al. Plant and Cell Physiology 41:440-447, 2000). Assuming the stress is of sufficient intensity and duration plants will also begin to show signs of senescence. […]

PAL (EC 4.3.1.5) = test: PAL activity in radish cotyledons; details: 20 mg/L, FIG. 1
Procedure: as §1, §2

POD (EC 1.11.1.7) = test: POD activity in radish cotyledons; details: onset of organ maturity, FIG. 4
Procedure: as §1
To determine the effect of EML on induction of POD, activity of this enzyme was monitored during the 72 h incubation period after exposure to soy EML (20 mg/l) and the results are shown in FIG. 4. […] Highest POD activity was measured in control and ACC-treated cotyledons.

PPO (EC 1.14.18.1) = test: PPO activity in radish cotyledons; details: 20 mg/L, FIG. 6
Procedure: as §1
PPO (EC 1.14.18.1): Like PAL and POD, PPO is an important enzyme catalyzing lignin biosynthesis in plants.

IAA oxidase = IAA oxidase activity in radish cotyledons; details: 20 mg/L, FIG. 7
Procedure: as §1
IAA Oxidase activity: IAA homeostasis is an important process contributing to correlative control of plant growth and development. Generally, IAA is synthesized in the apices and in shoots; apically derived IAA is basipetally transported. […]

Compound	% of control (change in fresh weight) (radish cotyledons [1])	Chlorophyll a + b (mg/g FW) (radish cotyledons [1])	Chlorophyll a + b (μg/cotyledon) (radish cotyledons [1])	Chlorophyll a/b (radish cotyledons [1])	Change in fresh weight (radish cotyledons [1])	protein content (radish cotyledons [2])	PAL activity (PAL (EC 4.3.1.5))	POD activity at 48 and 72 h (POD (EC 1.11.1.7))	PPO activity (PPO (EC 1.14.18.1))	activity at 20 µg/mL (radish cotyledons [1]; Raphanus sativus, read-out: % of control (change in fresh weight))	IAA oxidase activity (IAA oxidase)
NC1(C(=O)O)CC1 [ACC, 1-amminocyclopropane-1-carboxylic acid]	25%	5.40 mg/g FW	35.90 ± 6.13 μg/cotyledon	0.83	2.56 ± 0.39 mg	delayed and reached a maximum only 24 h after exposure to light	progressively delayed	Highest	appeared to suppress PPO activity		
c1coc(CNc2ncnc3[nH]cnc23)c1 [Kinetin, kinetin]		2.17 mg/g FW	54.10 ± 7.03 μg/cotyledon	0.87	15.49 ± 1.81 mg	rapid but transient increase	progressively delayed	lowest	appeared to increase gradually over time	153%	
lysophosphatidylethanolamine [LPE]									did not induce PPO activity		no apparent effect
